Data: ChEMBL document CHEMBL4130365, “An overview of benzo[b]thiophene-based medicinal chemistry” (Eur J Med Chem, 2017)
Converted amounts (≈) assume the structure as drawn.

How the values were obtained:
[1] = biological target: T1, Amyloid-beta precursor protein (Homo sapiens, UniProt P05067); test: Inhibition of [125I]2-(3'-Iodo-4'-N-methylaminophenyl) benzothiazole binding to amyloid beta (1 to 40) (unknown origin) after 3 hrs by NaI well counting method
[2] = 1-octanol/phosphate buffer partition coefficient, log P of the compound at pH 7.4 by ultraviolet spectrophotometric method; type: physicochemical
[3] = biological target: T1, Amyloid-beta precursor protein; test: Inhibition of [125I]2-(3'-Iodo-4'-N-methylaminophenyl) benzothiazole binding to amyloid beta (1 to 42) (unknown origin) after 3 hrs by NaI well counting method
Rattus norvegicus [4] = test: Inhibition of glucose-induced sorbitol accumulation in sciatic nerve of streptozotocin-induced diabetic rat model administered via oral gavage at 4 to 24 hrs post streptozotocin treatment measured at 27 hrs post streptozotocin treatment relative to control; type: functional
Beta-secretase 1 = Beta-secretase 1 (Homo sapiens, UniProt P56817); test: Inhibition of BACE1 (unknown origin)
Sequence of Beta-secretase 1 (P56817 whole entry): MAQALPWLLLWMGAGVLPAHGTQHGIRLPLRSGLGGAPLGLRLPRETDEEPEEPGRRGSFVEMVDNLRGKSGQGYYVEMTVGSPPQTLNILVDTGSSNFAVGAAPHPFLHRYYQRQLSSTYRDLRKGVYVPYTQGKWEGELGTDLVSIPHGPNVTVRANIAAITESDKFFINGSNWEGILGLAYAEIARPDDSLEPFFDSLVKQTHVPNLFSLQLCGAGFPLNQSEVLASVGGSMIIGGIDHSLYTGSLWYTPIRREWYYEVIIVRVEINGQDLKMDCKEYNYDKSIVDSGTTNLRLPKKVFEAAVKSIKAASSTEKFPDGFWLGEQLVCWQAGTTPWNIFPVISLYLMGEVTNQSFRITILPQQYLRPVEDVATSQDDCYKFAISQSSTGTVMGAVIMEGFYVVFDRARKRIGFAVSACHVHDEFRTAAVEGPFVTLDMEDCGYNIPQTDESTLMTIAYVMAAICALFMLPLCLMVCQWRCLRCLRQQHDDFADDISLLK

Penicillium chrysogenum = test: Antifungal activity against Penicillium notatum at 1000 ug/ml after 48 hrs by filter paper disc method; type: functional; details: read-out: IZ
Aspergillus niger [5] = test: Antifungal activity against Aspergillus niger at 1000 ug/ml after 48 hrs by filter paper disc method; type: functional; details: read-out: IZ
[6] = Antioxidant activity assessed as inhibition of DPPH radical formation at 1000 ug/ml relative to control; type: functional
Acetylcholinesterase [7] = biological target: T2, Acetylcholinesterase (Homo sapiens, UniProt P22303); test: Inhibition of AChE (unknown origin) using acetylthiocholine as substrate by Ellman's method relative to control; details: concentration not given here
T2 sequence (P22303 whole entry): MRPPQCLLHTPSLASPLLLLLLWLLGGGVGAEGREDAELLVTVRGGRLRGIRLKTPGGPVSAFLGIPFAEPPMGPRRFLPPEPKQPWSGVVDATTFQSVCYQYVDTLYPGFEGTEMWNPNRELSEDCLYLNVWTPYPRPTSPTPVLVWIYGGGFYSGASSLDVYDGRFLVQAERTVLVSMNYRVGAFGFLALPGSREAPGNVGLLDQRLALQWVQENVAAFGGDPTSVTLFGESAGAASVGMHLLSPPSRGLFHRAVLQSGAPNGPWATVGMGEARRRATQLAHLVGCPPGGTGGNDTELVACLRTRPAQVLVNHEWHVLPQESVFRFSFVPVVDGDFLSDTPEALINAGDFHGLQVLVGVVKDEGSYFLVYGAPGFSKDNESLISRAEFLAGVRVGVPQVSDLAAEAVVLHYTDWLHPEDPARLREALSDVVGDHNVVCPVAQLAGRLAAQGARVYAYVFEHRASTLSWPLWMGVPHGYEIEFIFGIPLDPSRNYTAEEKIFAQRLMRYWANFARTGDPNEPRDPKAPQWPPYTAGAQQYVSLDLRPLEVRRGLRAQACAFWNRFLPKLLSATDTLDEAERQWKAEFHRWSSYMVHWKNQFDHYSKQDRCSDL

[8] = biological target: T3, Prostaglandin G/H synthase 2 (Homo sapiens, UniProt P35354); test: Inhibition of COX2 (unknown origin)
T3 sequence (P35354 whole entry): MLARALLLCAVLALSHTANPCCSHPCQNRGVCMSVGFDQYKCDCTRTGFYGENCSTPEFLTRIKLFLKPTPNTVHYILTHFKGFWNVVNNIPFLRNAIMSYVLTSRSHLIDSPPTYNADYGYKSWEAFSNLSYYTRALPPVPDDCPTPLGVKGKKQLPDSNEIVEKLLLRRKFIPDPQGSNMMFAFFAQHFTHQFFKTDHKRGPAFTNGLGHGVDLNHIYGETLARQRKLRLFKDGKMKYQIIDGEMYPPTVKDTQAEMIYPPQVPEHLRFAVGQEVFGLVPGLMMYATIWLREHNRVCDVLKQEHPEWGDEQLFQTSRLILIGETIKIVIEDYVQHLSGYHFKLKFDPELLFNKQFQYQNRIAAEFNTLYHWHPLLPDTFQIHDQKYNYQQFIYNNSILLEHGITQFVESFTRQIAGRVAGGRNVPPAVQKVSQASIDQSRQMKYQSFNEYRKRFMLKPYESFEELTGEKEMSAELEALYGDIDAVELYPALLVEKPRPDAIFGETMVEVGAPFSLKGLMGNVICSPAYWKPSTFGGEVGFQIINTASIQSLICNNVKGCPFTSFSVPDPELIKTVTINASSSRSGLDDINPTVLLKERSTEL

Escherichia coli [9] = test: Antibacterial activity against Escherichia coli ATCC 35218 at 40 ug/ml after 48 hrs by filter paper disc method; type: functional; details: ATCC 35218, 48 h, read-out: IZ
Neutrophil = test: Anti inflammatory activity in human neuterophils preincubated for 10 mins followed by zymosan activated serum addition measured for 30 mins; type: functional, cell-based
Rattus norvegicus [10] = test: Anti-inflammatory activity in rat assessed as inhibition of hind paw edema relative to control; type: functional
[11] = Antioxidant activity assessed as inhibition of superoxide anion radical formation after 5 mins in presence of PMS and NADH by nitroblue tetrazolium method relative to control; type: functional
[12] = Antioxidant activity assessed as inhibition of DPPH radical formation at 100 ug/ml relative to control; type: functional
Staphylococcus aureus = test: Antibacterial activity against Staphylococcus aureus at 5 ug/disc; type: functional; details: read-out: IZ
Bacillus subtilis = test: Antibacterial activity against Bacillus subtilis at 5 ug/disc; type: functional; details: read-out: IZ
Cholinesterase = Cholinesterase (Homo sapiens, UniProt P06276); test: Inhibition of BuChE (unknown origin)
Sequence of Cholinesterase (P06276 whole entry): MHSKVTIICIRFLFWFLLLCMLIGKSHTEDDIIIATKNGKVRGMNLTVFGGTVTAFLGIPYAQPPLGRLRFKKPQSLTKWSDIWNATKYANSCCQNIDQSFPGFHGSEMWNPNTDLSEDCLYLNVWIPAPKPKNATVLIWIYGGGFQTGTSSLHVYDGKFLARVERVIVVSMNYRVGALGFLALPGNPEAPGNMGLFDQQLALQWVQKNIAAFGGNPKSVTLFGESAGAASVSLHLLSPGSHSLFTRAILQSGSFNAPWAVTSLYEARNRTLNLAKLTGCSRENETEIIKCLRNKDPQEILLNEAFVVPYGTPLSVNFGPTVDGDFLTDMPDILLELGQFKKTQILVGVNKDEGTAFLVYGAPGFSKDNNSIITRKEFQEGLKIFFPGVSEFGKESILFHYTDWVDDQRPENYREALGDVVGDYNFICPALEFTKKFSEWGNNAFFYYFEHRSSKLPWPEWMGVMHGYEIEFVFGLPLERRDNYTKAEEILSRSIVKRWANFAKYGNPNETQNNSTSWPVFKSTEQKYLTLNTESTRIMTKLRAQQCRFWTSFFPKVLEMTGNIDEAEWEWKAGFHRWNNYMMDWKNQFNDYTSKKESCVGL

Acetylcholinesterase [13] = biological target: T2, Acetylcholinesterase; test: Inhibition of AChE (unknown origin)
Aspergillus clavatus = test: Antifungal activity against Aspergillus clavatus by broth dilution method; type: functional
Aspergillus niger [14] = test: Antifungal activity against Aspergillus niger by broth dilution method; type: functional
Pseudomonas aeruginosa = test: Antibacterial activity against Pseudomonas aeruginosa by broth dilution method; type: functional
SK-N-SH = test: Growth inhibition of human SK-N-SH cells; type: functional
DU-145 = test: Growth inhibition of human DU145 cells; type: functional
FaDu = test: Growth inhibition of human FADU cells; type: functional
SW-1736 = test: Growth inhibition of human SW1736 cells; type: functional
BXPC-3 = test: Growth inhibition of human BxPC3 cells; type: functional
[15] = system: Panel NCI-60 (60 carcinoma cell lines); test: Growth inhibition of human NCI60 cells; type: functional
NCI-H460 = test: Growth inhibition of human NCI-H460 cells; type: functional, cell-based
Tubulin = test: Inhibition of tubulin polymerization (unknown origin); type: protein-complex assay, Homo sapiens
Bacillus spizizenii = test: Antibacterial activity against Bacillus subtilis ATCC 6633 at 1000 ug/ml after 48 hrs by filter paper disc method; type: functional; details: ATCC 6633, 48 h, read-out: IZ
Escherichia coli [16] = test: Antibacterial activity against Escherichia coli ATCC 35218 at 1000 ug/ml after 48 hrs by filter paper disc method; type: functional; details: ATCC 35218, 48 h, read-out: IZ

T1 sequence (P05067 whole entry): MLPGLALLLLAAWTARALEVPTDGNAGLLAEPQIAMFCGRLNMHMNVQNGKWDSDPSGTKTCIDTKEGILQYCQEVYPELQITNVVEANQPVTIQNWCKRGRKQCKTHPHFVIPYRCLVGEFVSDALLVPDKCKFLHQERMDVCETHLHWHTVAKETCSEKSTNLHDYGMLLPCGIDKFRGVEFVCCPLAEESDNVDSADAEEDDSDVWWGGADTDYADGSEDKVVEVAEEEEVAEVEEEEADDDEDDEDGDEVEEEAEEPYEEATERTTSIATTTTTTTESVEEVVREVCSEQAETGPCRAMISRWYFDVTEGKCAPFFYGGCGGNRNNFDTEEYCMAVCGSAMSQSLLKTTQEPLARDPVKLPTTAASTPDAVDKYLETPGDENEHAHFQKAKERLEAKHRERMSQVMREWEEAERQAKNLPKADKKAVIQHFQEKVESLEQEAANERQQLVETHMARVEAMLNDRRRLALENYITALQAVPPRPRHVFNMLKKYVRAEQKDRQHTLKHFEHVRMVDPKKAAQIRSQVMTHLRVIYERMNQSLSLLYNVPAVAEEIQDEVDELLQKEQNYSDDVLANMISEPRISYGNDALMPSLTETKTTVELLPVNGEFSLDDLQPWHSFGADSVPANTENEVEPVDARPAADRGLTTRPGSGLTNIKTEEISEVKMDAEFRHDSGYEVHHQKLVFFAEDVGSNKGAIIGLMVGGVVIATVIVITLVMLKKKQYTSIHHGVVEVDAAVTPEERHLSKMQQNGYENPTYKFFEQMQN

With Oc1ccc(-c2cc3ccccc3s2)cc1 the Ki [1] was 3.04 nM, the logD [2] was 2.99 and the Ki [3] was 3.72 nM.

In the case of O=C(O)Cc1nn(Cc2cc3ccccc3s2)c(=O)c2ccccc12, the “inhibition (INH)” value (Rattus norvegicus [4]) is reported as 77%.

For Nc1ccc(-c2cc3ccccc3s2)cc1, the Ki [1] was 4.31 nM, the logD [2] was 2.87 and the Ki [3] was 6.5 nM.

COC(=O)c1cc(C)nc2sc3cccc(OC)c3c12 gave an IC50 (Beta-secretase 1) of 600 nM.

With Nc1c(C(=O)Nn2c(=O)cc(-c3ccccc3)c3ccc(O)cc32)sc2cc(F)ccc12 the zone of inhibition at 1000 µg/mL (Penicillium chrysogenum) was 26 mm and the zone of inhibition at 1000 µg/mL (Aspergillus niger [5]) was 27 mm.

With CCOC(=O)c1c(-n2c(-c3ccccc3)nc3c(Br)cc(Br)cc3c2=O)sc2c1CCCC2 the inhibition [6] was 67%.

In the case of CCOC(=O)c1c(NC(=O)CN2CCN(Cc3ccccc3)CC2)sc2c1CCCC2, the inhibition (Acetylcholinesterase [7]) is reported as 38.4%.

With O=C(NCCc1ccccc1)c1sc2ccccc2c1Br the IC50 [8] was 17.7 µM.

Cc1cccc(NC(=O)Nc2sc3ccccc3c2Cl)c1 showed a zone of inhibition at 40 µg/mL (Escherichia coli [9]) of 13 mm.

With CCOC(=O)c1c(NC(=O)C(Cl)Cl)sc2c1CCCC2 the IC50 (Neutrophil) was 396 µM and the “inhibition (INH)” value (Rattus norvegicus [10]) was 81%.

With CCOC(=O)c1c(N)sc2c1CCCC2 the IC50 (Neutrophil) was 121 µM, the inhibition [11] was 58.6% and the “inhibition (INH)” value (Rattus norvegicus [10]) was 61%.

Cc1cc(=O)oc2c(/C=N/NC(=O)c3sc4ccccc4c3Cl)c(O)ccc12 showed an inhibition [12] of 70%.

COc1ccc(C2OC(c3sc4ccccc4c3Cl)=NN2C(C)=O)cc1 (centres undefined) showed a zone of inhibition at 5 µg/disc (Staphylococcus aureus) of 28 mm and a zone of inhibition at 5 µg/disc (Bacillus subtilis) of 28 mm.

Work on COc1ccc2sc(N)cc2c1 yielded an IC50 (Beta-secretase 1) of 2140 nM.

Work on Cc1ccccc1NNC(=O)Nc1sc2ccccc2c1Cl yielded a zone of inhibition at 40 µg/mL (Escherichia coli [9]) of 13 mm.

O=C1SCc2cccc([N+](=O)[O-])c21 showed a Ki (Cholinesterase) of 341 µM and a Ki (Acetylcholinesterase [13]) of 11.8 µM.

CC1(C)CC(=O)C2=C(C1)NC(=O)NC2c1cn(C(=O)c2sc3ccc(F)cc3c2Cl)c2ccccc12 (centres undefined) showed an MIC (Aspergillus clavatus) of 100 µg/mL (≈ 192 µM), an MIC (Aspergillus niger [14]) of 100 µg/mL (≈ 192 µM) and an MIC (Pseudomonas aeruginosa) of 100 µg/mL (≈ 192 µM).

COc1ccc(-c2sc3cc(OC)ccc3c2Oc2cc(OC)c(OC)c(OC)c2)cc1 showed a GI50 (SK-N-SH) of 0.063 µg/mL (≈ 0.139 µM), a GI50 (DU-145) of 0.42 µg/mL (≈ 0.928 µM) and a GI50 (FaDu) of 0.098 µg/mL (≈ 0.217 µM). The GI50 (SW-1736) was 0.73 µg/mL (≈ 1.61 µM), the GI50 (BXPC-3) was 0.23 µg/mL (≈ 0.508 µM) and the GI50 [15] was 490 nM. For the same compound, the GI50 (NCI-H460) was 0.31 µg/mL (≈ 0.685 µM) and the IC50 (Tubulin) was 880 nM.

Compound O=c1c2ccccc2nc(-c2sc3ccccc3c2Cl)n1O has a zone of inhibition at 1000 µg/mL (Bacillus spizizenii) of 16 mm and a zone of inhibition at 1000 µg/mL (Escherichia coli [16]) of 12 mm.
